# Laboratory results: patent publication US20060183677A1, “Novel exendin agonist formulations and methods of administration thereof” (priority 2002, published 2006)
# What was measured:
# Sprague-Dawley rats = assay: Insulinotropic action during intravenous glucose challenge in rats (Example 5); type: in vivo; conditions: 30 pmol/kg/min i.v.
# diabetic db/db mice = assay: Glucose lowering in diabetic db/db mice (dose response); type: in vivo
# Procedure: C57BLKS/J-m-db/db mice, at least 3 months of age were utilized for the study. The mice were obtained from The Jackson Laboratory and allowed to acclimate for at least one week before use. Mice were housed in groups of ten at 22° C.±1° C. with a 12:12 light:dark cycle, with lights on at 6 a.m. All animals were deprived of food for 2 hours before taking baseline blood samples. Approximately 70 μl of blood was drawn from each mouse via eye puncture, after a light anesthesia with metophane. […] Blood samples were drawn again, using the same procedure, after exactly one hour from the injections, and plasma glucose concentrations were measured. For each animal, the % change in plasma value, from baseline value, was calculated and a dose dependent relationship was evaluated using Graphpad Prizm™ software.
# humans = conditions: acute treatment; cited from earlier work
substance,measurement,setting,value
GLP-1[7-36]NH2,60-min glucose AUC,Sprague-Dawley rats,1096 ± 68 mM·min
same,plasma glucose after glucose injection,Sprague-Dawley rats; D-glucose […] i.v.,23.7 mM
same,increase of 60-min insulin AUC versus saline-treated rats,Sprague-Dawley rats; n.s. versus saline,20%
same,Glucose-lowering ED50,diabetic db/db mice,20.6 µg
same,acute effect on insulin sensitivity,humans,appears not to immediately alter insulin sensitivity
